# Patent US20040023994A1 (priority 2002, published 2004)
# Marks after values point to notes of the source that are not given here.
# Columns and labels:
# [1] = system: Heterozygous nude CD-1 male mice; assay: Hematology analyses in treated mice; details: i.p.
# Experimental: (§1) Heterozygous nude CD-1 male mice were treated (i.p.) with multiple doses consisting of either one dose daily for three consecutive days (cis-AVTP or trans-AVTG, 21.25 μmol/kg, 6-TG, 8.5 or 21.25 μmol/kg, or vehicle; one cycle), or one dose daily for three consecutive days, repeated again five days later (cis-AVTP, trans-AVTG or 6-TG, 8.5 or 21.25 μmol/kg, or vehicle; two cycles).
# (§2) The mice were sacrificed 24 h after the last treatment. Urine was collected for 24 h before initiation of treatment and every 24 h thereafter until the mice were sacrificed. Blood was collected by cardiac puncture and blood cells counted. Sections of liver, kidney, intestines, stomach and sternum were stained with hematoxylin and eosin and subjected to pathological analysis. Bone marrow smears were prepared for assessment of bone marrow cellularity. Liver function was evaluated by measuring alanine aminotransferase-(ALT) and aspartate aminotransferase (AST) activities in plasma. Kidney function was evaluated by measuring blood urea nitrogen in plasma and γ-glutamyltransferase activity and glucose levels in urine.
# [2] = system: Heterozygous nude CD-1 male mice; assay: Intestinal pathological analysis (crypt epithelial cell apoptosis) in treated mice; details: multiple doses
# Experimental: as §1, §2
# OVCAR-4 = details: OVCAR-4, Ovarian, NCI database, cited from earlier work
# OVCAR-5 = details: OVCAR-5, Ovarian, NCI database, cited from earlier work
# DU-145 = details: DU-145, Prostate, NCI database, cited from earlier work
# HCT-116 = details: HCT-116, Colon, NCI database, cited from earlier work
# HOP-62 = details: HOP-62, Non-Small Cell Lung, NCI database, cited from earlier work
# NCI-H460 = details: NCI-H460, Non-Small Cell Lung, NCI database, cited from earlier work
# SF-539 = details: SF-539, CNS, NCI database, cited from earlier work
# SNB-19 = details: SNB-19, CNS, NCI database, cited from earlier work
# RPMI-8226 = details: RPMI-8226, Leukemia, NCI database, cited from earlier work
# SR = details: Leukemia, NCI database, cited from earlier work
# HL-60(TB) = details: cited from earlier work
# [3] = read-out: LC50 (the source's name)
smiles,measurement,setting,value
"Nc1nc2nc[nH]c2c(=S)[nH]1 [6-TG, 6-thioguanine]",PLT,"[1]; 8.5 μmol/kg, one cycle",1172 ± 161 × 10^3 cells/μl
same,RBC,"[1]; 8.5 μmol/kg, one cycle",8.3 ± 0.4 × 10^6 cells/μl
same,WBC,"[1]; 8.5 μmol/kg, one cycle",4.8 ± 1.2 × 10^3 cells/μl
same,PLT,"[1]; 8.5 μmol/kg, two cycles",906 ± 140 × 10^3 cells/μl
same,RBC,"[1]; 8.5 μmol/kg, two cycles",8.3 ± 0.2 × 10^6 cells/μl
same,WBC,"[1]; 8.5 μmol/kg, two cycles",5.3 ± 1.6 × 10^3 cells/μl
same,PLT,"[1]; 21.25 μmol/kg, one cycle",752 ± 416^b × 10^3 cells/μl
same,RBC,"[1]; 21.25 μmol/kg, one cycle",8.4 ± 0.6^a × 10^6 cells/μl
same,WBC,"[1]; 21.25 μmol/kg, one cycle","3.8 ± 1.1^b,* × 10^3 cells/μl"
same,PLT,"[1]; 21.25 μmol/kg, two cycles",1351 ± 126 × 10^3 cells/μl
same,RBC,"[1]; 21.25 μmol/kg, two cycles",8.0 ± 0.3 × 10^6 cells/μl
same,WBC,"[1]; 21.25 μmol/kg, two cycles",3.6 ± 0.1 × 10^3 cells/μl
same,change in peripheral white blood cell counts,"[1]; trans-AVTG: only 21.25 μmol/kg two cycles, 6-TG: 8.5 or 21.25 μmol/kg one cycle or 21.25 μmol/kg two cycles",reduced white blood cell counts
same,"crypt epithelial apoptosis, large intestines",[2],considerable crypt cell apoptosis
same,"crypt epithelial cell apoptosis, small intestines",[2],extensively
same,GI50,OVCAR-4,1.49 µM
same,TGI,OVCAR-4,99.5 µM
same,CC50,OVCAR-4; [3],> 100 µM
same,GI50,OVCAR-5,0.65 µM
same,TGI,OVCAR-5,47.5 µM
same,CC50,OVCAR-5; [3],> 100 µM
same,GI50,DU-145,0.78 µM
same,TGI,DU-145,>100 µM
same,CC50,DU-145; [3],> 100 µM
same,GI50,HCT-116,0.53 µM
same,TGI,HCT-116,16.2 µM
same,CC50,HCT-116; [3],> 100 µM
same,GI50,HOP-62,0.73 µM
same,TGI,HOP-62,28.4 µM
same,CC50,HOP-62; [3],> 100 µM
same,GI50,NCI-H460,0.66 µM
same,TGI,NCI-H460,20.0 µM
same,CC50,NCI-H460; [3],> 100 µM
same,GI50,SF-539,1.02 µM
same,TGI,SF-539,68.4 µM
same,CC50,SF-539; [3],> 100 µM
same,GI50,SNB-19,78.5 µM
same,TGI,SNB-19,>100 µM
same,CC50,SNB-19; [3],> 100 µM
same,GI50,RPMI-8226,0.39 µM
same,TGI,RPMI-8226,20.9 µM
same,CC50,RPMI-8226; [3],> 100 µM
same,CC50,SR; [3],> 100 µM
same,GI50,SR,0.19 µM
same,TGI,SR,17.9 µM
same,GI50,"HL-60(TB); Leukemia, NCI database",1.07 µM
same,TGI,"HL-60(TB); Leukemia, NCI database",17.8 µM
same,CC50,"HL-60(TB); read-out: LC50, Leukemia, NCI database",> 100 µM
